Laboratory results: ChEMBL document CHEMBL1201862, “PubChem BioAssay data set” (2004)
Activity calls are given as the source filed them.

Key:
[1] = target: T1, Voltage-dependent T-type calcium channel subunit alpha-1H (Homo sapiens, UniProt O95180); test: Inhibitors of T-Type Calcium Channels. [Related pubchem assays (depositor defined):AID449739, AID463087, AID489005, AID493041, AID504579, AID504584, AID504619, AID504628]; type: functional
[2] = HEp-2 cell cytotoxicity, dose response, cytotoxicity control for RSV inhibitor project, HTS (AID 2410); type: functional; conditions: human respiratory syncytial virus
[3] = target: T1, Voltage-dependent T-type calcium channel subunit alpha-1H; type: functional
Cytochrome P450 2D6 = Cytochrome P450 2D6 (Homo sapiens, UniProt P10635);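 also: CYP2D6 member of a cytochrome P450 panel assay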
Cytochrome P450 2D6, sequence (P10635 whole entry): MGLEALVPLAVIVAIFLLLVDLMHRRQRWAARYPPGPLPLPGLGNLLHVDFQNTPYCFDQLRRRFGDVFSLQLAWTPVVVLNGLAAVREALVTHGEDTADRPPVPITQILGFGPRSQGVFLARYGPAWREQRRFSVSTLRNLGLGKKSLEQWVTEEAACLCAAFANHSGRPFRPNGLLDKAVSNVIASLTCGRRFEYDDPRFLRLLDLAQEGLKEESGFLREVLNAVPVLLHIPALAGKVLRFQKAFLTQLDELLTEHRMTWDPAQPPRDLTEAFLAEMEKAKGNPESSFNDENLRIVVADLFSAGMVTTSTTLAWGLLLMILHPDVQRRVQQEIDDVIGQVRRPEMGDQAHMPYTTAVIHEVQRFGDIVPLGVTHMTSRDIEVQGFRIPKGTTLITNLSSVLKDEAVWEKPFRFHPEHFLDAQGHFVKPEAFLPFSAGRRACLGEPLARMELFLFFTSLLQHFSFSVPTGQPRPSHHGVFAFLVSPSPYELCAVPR

Large T antigen = Large T antigen (Simian virus 40, UniProt P03070); type: functional, Betapolyomavirus macacae;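 also: Confirmatory-stage PubChem screen for compounds that inhibit SV40 T antigen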
Large T antigen, sequence (P03070 whole entry): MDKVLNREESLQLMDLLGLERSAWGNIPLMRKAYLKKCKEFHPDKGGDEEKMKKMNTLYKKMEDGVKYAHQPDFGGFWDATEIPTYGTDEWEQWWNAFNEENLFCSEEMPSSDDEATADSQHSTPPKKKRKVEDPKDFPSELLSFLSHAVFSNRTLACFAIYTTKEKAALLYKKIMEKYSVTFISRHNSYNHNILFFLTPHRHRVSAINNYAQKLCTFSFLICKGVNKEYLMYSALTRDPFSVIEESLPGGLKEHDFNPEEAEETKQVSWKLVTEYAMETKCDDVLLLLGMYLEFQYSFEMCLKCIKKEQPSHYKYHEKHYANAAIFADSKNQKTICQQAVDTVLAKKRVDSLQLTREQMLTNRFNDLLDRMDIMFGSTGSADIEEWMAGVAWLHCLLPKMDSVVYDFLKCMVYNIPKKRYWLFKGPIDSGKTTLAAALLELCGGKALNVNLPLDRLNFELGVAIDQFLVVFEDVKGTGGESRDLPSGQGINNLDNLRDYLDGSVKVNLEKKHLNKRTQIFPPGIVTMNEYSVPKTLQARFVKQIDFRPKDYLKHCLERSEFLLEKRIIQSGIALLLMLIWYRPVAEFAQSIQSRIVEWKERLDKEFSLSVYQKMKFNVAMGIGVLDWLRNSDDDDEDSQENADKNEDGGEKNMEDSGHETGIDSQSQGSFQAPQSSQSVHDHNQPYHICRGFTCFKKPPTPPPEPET

Cysteine protease ATG4B = target: T2, Cysteine protease ATG4B (Homo sapiens, UniProt Q9Y4P1); type: functional;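 also: Fluorescence-based dose-response confirmation assay measuring inhibition of ATG4B activity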
T2 sequence (Q9Y4P1 whole entry): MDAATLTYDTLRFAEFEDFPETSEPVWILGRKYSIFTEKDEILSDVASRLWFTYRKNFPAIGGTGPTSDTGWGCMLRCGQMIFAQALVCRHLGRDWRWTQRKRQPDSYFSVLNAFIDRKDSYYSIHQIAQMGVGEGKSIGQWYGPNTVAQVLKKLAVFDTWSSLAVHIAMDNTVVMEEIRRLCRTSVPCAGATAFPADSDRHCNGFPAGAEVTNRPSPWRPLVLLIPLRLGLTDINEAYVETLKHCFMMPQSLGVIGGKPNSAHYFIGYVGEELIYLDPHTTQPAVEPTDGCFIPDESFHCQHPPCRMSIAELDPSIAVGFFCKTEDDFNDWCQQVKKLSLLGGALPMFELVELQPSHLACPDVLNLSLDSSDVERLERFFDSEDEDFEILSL

[4] = target: T3, Apoptotic protease-activating factor 1 (Homo sapiens, UniProt O14727); type: functional
T3 sequence (O14727 whole entry): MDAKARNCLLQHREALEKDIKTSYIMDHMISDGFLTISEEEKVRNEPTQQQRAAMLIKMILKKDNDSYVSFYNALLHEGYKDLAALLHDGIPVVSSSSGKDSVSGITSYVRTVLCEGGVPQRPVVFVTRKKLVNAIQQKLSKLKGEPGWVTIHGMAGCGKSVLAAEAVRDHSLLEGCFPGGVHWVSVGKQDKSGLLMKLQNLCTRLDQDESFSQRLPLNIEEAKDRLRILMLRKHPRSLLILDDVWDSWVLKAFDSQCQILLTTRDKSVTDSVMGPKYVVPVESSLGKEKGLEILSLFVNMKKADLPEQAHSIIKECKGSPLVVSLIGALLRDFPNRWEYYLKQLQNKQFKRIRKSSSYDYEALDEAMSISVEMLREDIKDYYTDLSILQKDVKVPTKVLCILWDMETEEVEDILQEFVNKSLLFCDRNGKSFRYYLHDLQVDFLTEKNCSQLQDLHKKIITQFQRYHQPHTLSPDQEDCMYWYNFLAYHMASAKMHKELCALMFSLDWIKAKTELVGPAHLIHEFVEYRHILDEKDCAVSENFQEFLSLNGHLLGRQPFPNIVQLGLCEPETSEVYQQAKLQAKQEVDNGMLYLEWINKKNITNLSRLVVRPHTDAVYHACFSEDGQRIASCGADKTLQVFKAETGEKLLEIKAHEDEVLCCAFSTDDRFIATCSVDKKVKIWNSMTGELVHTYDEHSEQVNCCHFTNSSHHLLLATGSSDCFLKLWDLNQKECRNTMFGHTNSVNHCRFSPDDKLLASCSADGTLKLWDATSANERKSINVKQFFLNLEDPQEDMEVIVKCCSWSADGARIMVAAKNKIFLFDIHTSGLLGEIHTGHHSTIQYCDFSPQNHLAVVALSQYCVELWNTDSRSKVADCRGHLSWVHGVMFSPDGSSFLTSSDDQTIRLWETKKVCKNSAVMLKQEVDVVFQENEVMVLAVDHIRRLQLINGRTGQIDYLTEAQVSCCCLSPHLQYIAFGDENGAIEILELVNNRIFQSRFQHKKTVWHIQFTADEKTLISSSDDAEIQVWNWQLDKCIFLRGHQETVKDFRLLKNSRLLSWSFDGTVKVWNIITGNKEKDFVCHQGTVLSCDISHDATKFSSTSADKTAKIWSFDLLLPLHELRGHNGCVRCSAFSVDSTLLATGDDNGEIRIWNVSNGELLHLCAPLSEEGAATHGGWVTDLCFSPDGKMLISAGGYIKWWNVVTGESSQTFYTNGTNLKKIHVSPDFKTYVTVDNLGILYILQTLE

[5] = microbe, parasite or virus in culture; type: functional; conditions: Mycobacterium tuberculosis
[6] = target: T4, Rac GTPase-activating protein 1 (Homo sapiens, UniProt Q9H0H5); test: MgcRacGAP GTPase-activating activity inhibitors, confirmation, biochemical, ADP Hunter fluorescence, primary and confirmatory (AID 624330); type: functional
T4 sequence (Q9H0H5 whole entry): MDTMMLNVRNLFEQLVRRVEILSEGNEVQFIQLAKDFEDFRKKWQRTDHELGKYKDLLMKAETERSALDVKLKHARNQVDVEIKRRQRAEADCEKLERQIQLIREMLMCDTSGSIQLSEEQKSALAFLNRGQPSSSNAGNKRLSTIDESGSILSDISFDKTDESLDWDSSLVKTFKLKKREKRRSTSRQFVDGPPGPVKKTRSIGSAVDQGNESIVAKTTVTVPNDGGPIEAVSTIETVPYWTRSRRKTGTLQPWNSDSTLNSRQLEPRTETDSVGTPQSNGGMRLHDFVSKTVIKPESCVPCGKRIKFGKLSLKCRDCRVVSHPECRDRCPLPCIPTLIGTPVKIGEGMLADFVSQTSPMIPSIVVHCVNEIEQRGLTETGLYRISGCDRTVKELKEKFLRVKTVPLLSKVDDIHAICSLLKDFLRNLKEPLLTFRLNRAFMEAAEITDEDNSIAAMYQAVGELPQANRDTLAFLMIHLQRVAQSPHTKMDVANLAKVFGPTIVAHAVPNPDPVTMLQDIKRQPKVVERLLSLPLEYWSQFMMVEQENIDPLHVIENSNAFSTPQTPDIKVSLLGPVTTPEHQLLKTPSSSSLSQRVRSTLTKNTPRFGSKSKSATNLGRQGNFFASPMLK

Hexokinase HKDC1 = target: T5, Hexokinase HKDC1 (Homo sapiens, UniProt Q2TB90); test: HKDC1 hexokinase inhibitors, dose response, biochemical, W721R variant (AID 504729); type: functional
T5 sequence (Q2TB90 whole entry): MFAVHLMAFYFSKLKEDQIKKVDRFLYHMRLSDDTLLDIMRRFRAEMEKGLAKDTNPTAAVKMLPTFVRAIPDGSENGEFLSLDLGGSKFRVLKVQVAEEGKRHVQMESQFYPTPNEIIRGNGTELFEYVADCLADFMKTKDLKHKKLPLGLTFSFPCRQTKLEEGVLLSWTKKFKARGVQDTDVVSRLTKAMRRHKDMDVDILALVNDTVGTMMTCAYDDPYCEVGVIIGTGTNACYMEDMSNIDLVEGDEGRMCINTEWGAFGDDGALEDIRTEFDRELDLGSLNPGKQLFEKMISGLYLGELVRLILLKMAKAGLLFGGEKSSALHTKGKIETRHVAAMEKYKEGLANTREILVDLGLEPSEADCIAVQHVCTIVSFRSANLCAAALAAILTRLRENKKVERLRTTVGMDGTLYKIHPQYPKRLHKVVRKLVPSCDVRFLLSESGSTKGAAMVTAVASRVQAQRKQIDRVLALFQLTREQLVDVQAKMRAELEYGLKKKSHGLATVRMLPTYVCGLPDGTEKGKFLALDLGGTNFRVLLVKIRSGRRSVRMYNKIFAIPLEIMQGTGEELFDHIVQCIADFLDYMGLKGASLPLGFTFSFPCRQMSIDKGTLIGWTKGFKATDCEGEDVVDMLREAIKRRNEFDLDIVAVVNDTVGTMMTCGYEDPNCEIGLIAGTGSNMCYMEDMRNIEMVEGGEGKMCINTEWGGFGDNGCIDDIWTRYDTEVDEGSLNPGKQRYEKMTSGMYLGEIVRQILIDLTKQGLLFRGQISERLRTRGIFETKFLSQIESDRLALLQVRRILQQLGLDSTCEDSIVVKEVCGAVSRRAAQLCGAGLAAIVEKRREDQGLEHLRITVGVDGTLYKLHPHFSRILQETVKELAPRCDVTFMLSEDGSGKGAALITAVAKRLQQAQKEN

[7] = HeLa cell cytotoxicity, dose response, cytotoxicity control for MgcRacGAP inhibitor project (AID 624300); type: functional
Beta Lactamase = Beta Lactamase (Pseudomonas aeruginosa, UniProt Q932Y6); test: beta-lactamase reporter inhibitor potency, dose response, artefact control for TLR9-MyD88 binding inhibitor project, BLA reporter cells, FRET fluorescence (AID 588341); type: cell-based;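 also: cell based assay in CHO-K1 cells stably expressing beta-lactamase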
Beta Lactamase, sequence (Q932Y6 whole entry, the tested form may be a part): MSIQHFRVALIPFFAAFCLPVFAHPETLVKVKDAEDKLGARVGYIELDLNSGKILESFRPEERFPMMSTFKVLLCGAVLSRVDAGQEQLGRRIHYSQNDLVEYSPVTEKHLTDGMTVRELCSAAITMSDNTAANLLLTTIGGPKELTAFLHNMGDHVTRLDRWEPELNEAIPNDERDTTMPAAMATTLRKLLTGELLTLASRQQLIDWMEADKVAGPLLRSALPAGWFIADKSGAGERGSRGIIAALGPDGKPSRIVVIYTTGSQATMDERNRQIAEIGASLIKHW

CHO = test: cytotoxicity in TLR9-MyD88 CHO cells, dose response, cytotoxicity control for TLR9-MyD88 binding inhibitor project, cell-based, luminescence (AID 588339); type: functional, hamster; conditions: Cricetulus griseus;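 also: CHO cells stably coexpressing TLR9 and MyD88 fusions from primary screen; compound exposure lasted 48 hours before viability readout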
Phospholipase A2 = Phospholipase A2 (Homo sapiens, UniProt P04054); type: functional;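 also: confirmatory dose-response counterscreen on phospholipase A2, testing hits that came from an ultra-high-throughput screen for ATG4B inhibitors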
Phospholipase A2, sequence (P04054 whole entry): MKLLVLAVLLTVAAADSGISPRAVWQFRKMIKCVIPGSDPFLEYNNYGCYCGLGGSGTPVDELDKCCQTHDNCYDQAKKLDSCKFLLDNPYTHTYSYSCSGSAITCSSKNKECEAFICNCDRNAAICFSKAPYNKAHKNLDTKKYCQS

[8] = target: Cyclin-dependent kinase 5/CDK5 activator 1 (Homo sapiens, UniProt Q00535); test: CDK5/p35 kinase inhibitors, dose response, biochemical, cherry-picked samples, set 2 (AID 504545)
[9] = NIH-3T3 fibroblast cytotoxicity, dose response, cytotoxicity control, cell-based, fluorescence, Alamar Blue, secondary assay (AID 2327); type: functional;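 also: NIH-3T3 mouse fibroblasts cultured with fluconazole at 8 µg/mL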
Vero [10] = test: cells; type: functional, cell-based; conditions: Chlorocebus sabaeus
Vero [11] = test: cells; type: functional; conditions: Chlorocebus sabaeus
[12] = target: Neurotensin receptor type 1 (Homo sapiens, UniProt P30989); type: functional;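 also: Image-based confirmatory dose-response assay measuring agonist activity at NTR1; NTR1-expressing U2OS osteosarcoma cells imaged for beta-arrestin GFP spot formation; agonist potency where compounds increase beta-arrestin recruitment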
Neurotensin receptor type 1, sequence (P30989 whole entry): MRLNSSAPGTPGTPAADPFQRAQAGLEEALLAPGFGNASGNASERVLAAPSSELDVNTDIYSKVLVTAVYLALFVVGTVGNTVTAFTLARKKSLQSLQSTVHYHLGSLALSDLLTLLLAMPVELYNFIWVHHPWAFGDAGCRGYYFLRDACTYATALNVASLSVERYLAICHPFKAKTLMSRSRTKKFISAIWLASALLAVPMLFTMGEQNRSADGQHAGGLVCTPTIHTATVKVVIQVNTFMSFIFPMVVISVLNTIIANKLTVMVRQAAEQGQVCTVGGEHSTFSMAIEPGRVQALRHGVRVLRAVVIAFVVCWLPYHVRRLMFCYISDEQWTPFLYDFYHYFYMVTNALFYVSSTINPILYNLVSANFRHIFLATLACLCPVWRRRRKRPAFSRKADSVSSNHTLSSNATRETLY

[13] = growth suppression of beta-catenin-knockout colon cells, dose response, cell-based, HCT116, human colon tumor (AID 1045); type: functional;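 also: HCT116 colon tumor cells with beta catenin knocked out; cells exposed to compound for 60 hours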
[14] = target: T6, Neuropeptide Y receptor type 1 (Homo sapiens, UniProt P25929); type: functional;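 also: HEK293 cells with a CNG channel challenged with NPY then isoproterenol; potency as antagonist that reverses NPY suppression of cAMP signal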
T6 sequence (P25929 whole entry): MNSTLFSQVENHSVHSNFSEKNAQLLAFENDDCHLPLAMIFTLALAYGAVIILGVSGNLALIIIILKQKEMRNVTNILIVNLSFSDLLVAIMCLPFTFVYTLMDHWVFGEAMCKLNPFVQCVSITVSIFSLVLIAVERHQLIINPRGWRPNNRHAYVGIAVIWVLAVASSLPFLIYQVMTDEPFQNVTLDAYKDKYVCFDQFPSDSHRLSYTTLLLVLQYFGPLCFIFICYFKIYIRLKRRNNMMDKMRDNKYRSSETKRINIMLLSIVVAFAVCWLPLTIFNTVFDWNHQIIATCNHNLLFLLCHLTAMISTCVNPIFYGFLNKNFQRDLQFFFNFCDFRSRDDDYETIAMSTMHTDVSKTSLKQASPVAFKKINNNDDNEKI

[15] = growth suppression of PTEN-null colon cells, dose response, cell-based, HCT116 PTEN knockout (AID 1047); type: functional;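 also: HCT116 colon tumor cells with PTEN knocked out; cells exposed to compound for 60 hours before readout; potency for loss of cell viability measured by luminescence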
[16] = C. albicans growth with fluconazole, confirmation, fluorescence, retest (AID 2467); type: functional, cell-based
[17] = target: T7, Neuropeptide Y receptor type 2 (Homo sapiens, UniProt P49146); type: functional, cell-based;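 also: HEK293 cells expressing the receptor and a CNG channel; stimulus was NPY near EC95 followed by isoproterenol to raise cAMP; antagonist potency measured as restoring cAMP signal that NPY suppresses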
T7 sequence (P49146 whole entry): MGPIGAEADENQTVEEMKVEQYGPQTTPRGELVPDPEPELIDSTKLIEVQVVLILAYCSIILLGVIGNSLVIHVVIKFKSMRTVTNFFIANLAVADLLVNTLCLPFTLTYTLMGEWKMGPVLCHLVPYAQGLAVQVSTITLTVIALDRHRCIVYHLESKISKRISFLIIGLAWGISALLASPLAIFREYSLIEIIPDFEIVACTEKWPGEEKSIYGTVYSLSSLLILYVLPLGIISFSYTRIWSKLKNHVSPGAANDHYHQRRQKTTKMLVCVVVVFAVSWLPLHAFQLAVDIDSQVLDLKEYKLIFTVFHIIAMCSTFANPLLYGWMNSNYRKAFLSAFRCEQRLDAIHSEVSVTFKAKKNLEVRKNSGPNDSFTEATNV

[18] = target: G2/mitotic-specific cyclin-B1 (Homo sapiens, UniProt P14635); test: G2/M cell cycle arrest in HeLa, late-stage follow-up, mechanism study for Wee1 degradation inhibitor project, FACS, panel member Cyclin B Degradation (AID 2088)
G2/mitotic-specific cyclin-B1, sequence (P14635 whole entry): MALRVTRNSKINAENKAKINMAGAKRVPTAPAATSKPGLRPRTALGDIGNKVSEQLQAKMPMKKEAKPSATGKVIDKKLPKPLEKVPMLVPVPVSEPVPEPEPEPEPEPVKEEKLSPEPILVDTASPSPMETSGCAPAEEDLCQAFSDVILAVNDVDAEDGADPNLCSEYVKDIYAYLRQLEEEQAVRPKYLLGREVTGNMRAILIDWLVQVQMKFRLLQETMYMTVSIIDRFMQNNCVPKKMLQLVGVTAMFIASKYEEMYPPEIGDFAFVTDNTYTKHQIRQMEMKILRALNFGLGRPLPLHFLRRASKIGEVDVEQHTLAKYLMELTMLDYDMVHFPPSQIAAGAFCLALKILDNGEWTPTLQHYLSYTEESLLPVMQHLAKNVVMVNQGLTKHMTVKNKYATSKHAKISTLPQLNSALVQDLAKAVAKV

Wee1-like protein kinase = Wee1-like protein kinase (Homo sapiens, UniProt P30291); test: G2/M cell cycle arrest in HeLa, late-stage follow-up, mechanism study for Wee1 degradation inhibitor project, FACS, panel member Wee1 Degradation (AID 2088)
[19] = target: Cystic fibrosis transmembrane conductance regulator/Golgi-associated PDZ and coiled-coil motif-containing protein (Homo sapiens, UniProt P13569+Q9HD26); test: CAL PDZ peptide-binding inhibitors, dose response, biochemical, fluorescence polarization, Cerulean-tagged CAL PDZ, cherry-picks (AID 504773)

T1 sequence (O95180 whole entry): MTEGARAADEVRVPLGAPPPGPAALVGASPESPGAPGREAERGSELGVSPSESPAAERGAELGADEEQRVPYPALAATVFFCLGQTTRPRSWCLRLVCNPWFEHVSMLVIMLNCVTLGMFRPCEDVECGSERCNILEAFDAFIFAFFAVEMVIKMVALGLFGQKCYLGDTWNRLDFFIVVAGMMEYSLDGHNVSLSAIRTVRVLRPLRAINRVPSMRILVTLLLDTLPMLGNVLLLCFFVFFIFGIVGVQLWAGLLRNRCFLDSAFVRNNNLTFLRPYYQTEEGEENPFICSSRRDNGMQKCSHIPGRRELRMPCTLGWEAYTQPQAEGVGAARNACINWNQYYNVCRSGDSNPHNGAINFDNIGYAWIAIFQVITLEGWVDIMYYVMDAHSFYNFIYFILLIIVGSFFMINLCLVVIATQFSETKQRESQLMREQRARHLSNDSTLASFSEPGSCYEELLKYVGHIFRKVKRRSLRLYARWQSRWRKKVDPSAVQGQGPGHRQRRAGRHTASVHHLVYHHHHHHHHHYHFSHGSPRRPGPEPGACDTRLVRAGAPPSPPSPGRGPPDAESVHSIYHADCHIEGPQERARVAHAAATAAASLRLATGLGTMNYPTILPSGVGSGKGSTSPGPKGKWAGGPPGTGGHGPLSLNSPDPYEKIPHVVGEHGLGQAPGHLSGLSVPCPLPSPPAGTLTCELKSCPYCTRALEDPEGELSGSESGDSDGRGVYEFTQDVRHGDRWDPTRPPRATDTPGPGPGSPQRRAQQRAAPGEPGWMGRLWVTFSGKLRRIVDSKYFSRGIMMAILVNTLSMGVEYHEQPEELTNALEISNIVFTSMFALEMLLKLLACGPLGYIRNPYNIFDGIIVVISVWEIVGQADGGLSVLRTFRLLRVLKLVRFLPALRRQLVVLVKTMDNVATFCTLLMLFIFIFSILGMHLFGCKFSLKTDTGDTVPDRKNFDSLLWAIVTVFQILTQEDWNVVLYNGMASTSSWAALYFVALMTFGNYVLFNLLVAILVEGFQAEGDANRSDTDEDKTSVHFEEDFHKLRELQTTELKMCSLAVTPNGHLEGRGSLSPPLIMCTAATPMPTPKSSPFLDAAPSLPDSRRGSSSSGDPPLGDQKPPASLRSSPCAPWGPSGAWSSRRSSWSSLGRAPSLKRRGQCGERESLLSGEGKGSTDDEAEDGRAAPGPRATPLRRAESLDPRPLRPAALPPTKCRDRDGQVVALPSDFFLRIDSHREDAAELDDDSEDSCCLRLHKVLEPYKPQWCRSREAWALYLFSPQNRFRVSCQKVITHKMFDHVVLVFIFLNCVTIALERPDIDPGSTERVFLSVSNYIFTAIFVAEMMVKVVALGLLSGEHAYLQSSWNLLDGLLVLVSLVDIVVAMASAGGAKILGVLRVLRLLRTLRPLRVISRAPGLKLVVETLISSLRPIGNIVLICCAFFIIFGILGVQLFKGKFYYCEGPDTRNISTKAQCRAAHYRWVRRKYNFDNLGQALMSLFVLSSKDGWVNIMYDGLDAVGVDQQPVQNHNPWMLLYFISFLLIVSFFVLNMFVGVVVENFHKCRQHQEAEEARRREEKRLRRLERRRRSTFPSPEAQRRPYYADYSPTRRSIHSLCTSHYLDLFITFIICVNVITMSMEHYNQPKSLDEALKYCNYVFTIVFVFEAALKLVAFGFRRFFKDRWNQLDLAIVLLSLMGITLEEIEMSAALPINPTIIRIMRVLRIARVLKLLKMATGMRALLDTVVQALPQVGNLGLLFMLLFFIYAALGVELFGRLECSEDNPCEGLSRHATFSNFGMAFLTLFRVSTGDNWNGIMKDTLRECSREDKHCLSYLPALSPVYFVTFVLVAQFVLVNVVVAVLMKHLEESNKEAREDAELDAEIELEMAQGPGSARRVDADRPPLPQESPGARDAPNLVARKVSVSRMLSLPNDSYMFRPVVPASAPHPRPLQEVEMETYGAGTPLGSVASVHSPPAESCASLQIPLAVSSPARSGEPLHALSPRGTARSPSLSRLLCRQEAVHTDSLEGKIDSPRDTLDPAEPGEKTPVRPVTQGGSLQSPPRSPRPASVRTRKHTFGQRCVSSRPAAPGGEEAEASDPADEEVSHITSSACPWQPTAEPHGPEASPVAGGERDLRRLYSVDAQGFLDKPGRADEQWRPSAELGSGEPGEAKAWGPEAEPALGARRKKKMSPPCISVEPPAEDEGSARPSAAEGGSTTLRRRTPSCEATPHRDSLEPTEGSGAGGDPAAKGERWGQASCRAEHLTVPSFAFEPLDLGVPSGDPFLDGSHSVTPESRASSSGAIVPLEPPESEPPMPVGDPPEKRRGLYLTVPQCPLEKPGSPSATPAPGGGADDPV

For `O=C(CN1CCC(n2nnc3cc(F)ccc32)CC1)Nc1ccc2c(c1)CCC2`, the EC50 [1] was 6.67 µM (active), the CC50 [2] was > 50 µM (active) and the EC50 [3] was 5.76 µM (active).

In the case of `O=C1C(SCCO)=C(SCCO)C(=O)c2ccccc21`, the AC50 (Cytochrome P450 2D6) was 31.6 µM (inconclusive), the IC50 (Large T antigen) was 26.6 µM (active) and the IC50 (Cysteine protease ATG4B) was 12.8 µM (active). For the same compound, the IC50 [4] was 12.7 µM (active), the CC50 [5] was 30.1 µM (active) and the IC50 [6] was 32.5 µM (active). The IC50 (Hexokinase HKDC1) was 3.15 µM (active), the CC50 [7] was 24.5 µM (active) and the IC50 (Beta Lactamase) was 12.1 µM (inactive). The IC50 (CHO) was 0.479 µM (active) and the IC50 (Phospholipase A2) was 55.5 µM (inactive).

For `COc1ccc(S(=O)(=O)Nc2c(C(=O)O)[nH]c3ccc(OC)cc23)c(OC)c1`, the AC50 [8] was 20.6 µM (active).

For `O=C(/C=C/c1cccc(Cl)c1)c1nc2ccccc2[nH]1`, the EC50 [9] was 67 µM (inconclusive), the IC50 (Vero [10]) was > 25 µM (active) and the CC50 (Vero [11]) was 12.1 µM (active). The EC50 [12] was 25.8 µM (inactive), the EC50 [13] was 2.2 µM (active) and the IC50 [14] was 7.7 µM (active). For the same compound, the EC50 [15] was 2.16 µM (active), the EC50 [16] was 2.34 µM (active) and the IC50 [17] was 5.08 µM (active).

With `COc1ccc(C)cc1NC(=O)CCCOc1cc(=O)n(C)c2ccccc12` the EC50 [18] was > 49.7 µM (inactive) and the EC50 (Wee1-like protein kinase) was > 49.7 µM (inactive).

With `NS(=O)(=O)c1ccc(N2N=C(c3ccccc3)CC2c2ccccc2)cc1` (configuration not stated) the AC50 [19] was 66.6 µM (active).
